Data on two compounds can be found in patent US20140011853A1, “SUBSTITUTED 3-(BIPHENYL-3-YL)-8,8-DIFLUORO-4-HYDROXY-1-AZASPIRO[4.5]DEC-3-EN-2-ONES FOR THERAPY” (BAYER INTELLECTUAL PROPERTY GMBH, priority 2011, published 2014).

What is called Kd is a measure of binding affinity in units of concentration. In general, IC50 refers to the concentration that gives 50% inhibition.

The target of data set [1] is human serum albumin (HSA) (Homo sapiens, UniProt P02768). Put plainly: Protein binding to human serum albumin (HSA-Transil).
Another data set concerns Tetranychus urticae. Put plainly: Tetranychus test, OP-resistant (TETRUR spray treatment). It counts as in vivo. Particulars: Tetranychus urticae, 144 h, read-out: effect (kill of spider mites).
The test system of the next data set is KM12. As to the kind of experiment: Tumour cell proliferation, CellTiter-Glo, 96-hour incubation, KM12. It counts as cell-based. Particulars: Homo sapiens, KM12, 96 h, read-out: KM12 IC50. The gist of the method: (§1)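 Cells seeded at 2000-5000 cells/well, separate t=0 plate read after overnight at 37° C; compound-treated plates incubated 96 hours at 37° C, CellTiter-Glo luminescence. Growth inhibition (%) from t=96 minus t=0 luminescence, treated versus untreated control.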
Background: Cellular ATP, detected with luciferase, serves as a proxy for viable cell number.

For another data set, the target named is human ACC2 (Homo sapiens, UniProt O00763). As to the kind of experiment: Human ACC2 enzyme assay (ADP-Glo). Particulars: ACC 2 IC50, individual measurements. (In general: ADP-Glo turns the ADP formed in a reaction into a luminescent signal.)
A further data set relates to H460. As to the kind of experiment: Tumour cell proliferation, CellTiter-Glo, 96-hour incubation, H460. In kind it is cell-based. Conditions: Homo sapiens, NCI-H460, 96 h, read-out: H460 IC50. The gist of the method: as §1
Data set [2] is described as follows: Pharmacokinetic parameters in the rat (i.v. and intragastric). It counts as in vivo. Conditions: for clearance / Vd / half-life: male, iv; for clearance: read-out: CLplasma (converted); for Vd: read-out: Vss; for half-life: read-out: t½ (converted). As to the method: For this, the test substances were applied in dissolved form both for intravenous, and for intragastric application, wherein compatible solubilizers such as PEG400 and/or ethanol were used in a compatible amount.
(§2) The test substances were applied at a dose of 0.1-1 mg/kg. Administration was as a bolus injection in the male rat and as an infusion in the female dog (15 min). At various time points after the bolus injection, and before and after the 15-minute infusion, blood samples of about 100-150 μl were removed via a catheter either from the jugular vein (rat) or from the saphenous vein (dog). Lithium-heparin was added as anticoagulant to the blood samples and they were stored in a refrigerator until required for further processing. After centrifugation of the samples for 15 min at 3000 rpm, an aliquot of 100 μl was taken from the supernatant (plasma) and was precipitated by adding 400 μl of cold ACN or methanol (absolute). The precipitated samples were frozen-out at 20° C. overnight, then centrifuged again at 3000 rpm for 15 min, before 150 μl of the clear supernatant were removed to determine the concentration. The analysis was effected by means of an Agilent 1200 HPLC system with connected LCMS/MS detection.
Calculation of the PK parameters (using PK calculation software, e.g. WinNonLin®): CLplasma: total plasma clearance of the test substance (in l*kg/h); CLblood: total blood clearance of the test substance (in l*kg/h),
where (CLblood=CLplasma*Cp/Cb); Vss: apparent steady-state distribution volume (in 1/kg); t1/2: half-life within a specified interval (here: terminal t1/2, in h); AUCnorm: area under the plasma concentration time profile from time point zero extrapolated to infinity divided by the dose normalized for body weight (in kg*l/h); AUC(0-tn)norm: integrated area under the plasma concentration time profile from time point zero until the last time point at which a plasma concentration was measurable, divided by the dose normalized for body weight (in kg*l/h); Cmax: maximum concentration of the test substance in the plasma (in μg/l); Cmax,norm: maximum concentration of the test substance in the plasma divided by the dose normalized for body weight (in kg/1); Cb/Cp: ratio of the blood to plasma concentration distribution.
as §2, with “administered to fasting male rats or female dogs” for “applied”, “0.3-1 mg/kg intragastrically” for “0.1-1 mg/kg. Administration was”, “using a feeding tube.” for “injection in the male rat and as an infusion in the female dog (15 min).”, “administration,” for “the bolus injection, and before and after the 15-minute infusion,”, “−20°” for “20°”, “centrifuged” for “centrifuged again”
Calculation of the PK Parameters (Using PK Calculation Software, e.g. WinNonLin®): […]

The next data set concerns Phaedon cochleariae. Put plainly: Phaedon test (PHAECO spray treatment). Particulars: 500 g/ha, after 7 days.
A further data set relates to Myzus persicae. Put plainly: Myzus test (MYZUPE spray treatment). It counts as in vivo. Conditions: Myzus persicae, 144 h, read-out: effect (kill of aphids). An excerpt: Disks of Chinese cabbage (Brassica pekinensis) infested by all stages of the green peach aphid (Myzus persicae) are sprayed with an active compound formulation of the desired concentration.
In a further data set the test system is Spodoptera frugiperda. Put plainly: Spodoptera frugiperda test (SPODFR spray treatment). Particulars: 500 g/ha, after 7 days. In kind it is in vivo.

“And” between values parts separate entries of the source, which are not always exact repeats. Equal values may be shown once. Read-outs that look alike come from different tables or passages of the source.

Sequence of human ACC2 (O00763 27-2458 limits assumed): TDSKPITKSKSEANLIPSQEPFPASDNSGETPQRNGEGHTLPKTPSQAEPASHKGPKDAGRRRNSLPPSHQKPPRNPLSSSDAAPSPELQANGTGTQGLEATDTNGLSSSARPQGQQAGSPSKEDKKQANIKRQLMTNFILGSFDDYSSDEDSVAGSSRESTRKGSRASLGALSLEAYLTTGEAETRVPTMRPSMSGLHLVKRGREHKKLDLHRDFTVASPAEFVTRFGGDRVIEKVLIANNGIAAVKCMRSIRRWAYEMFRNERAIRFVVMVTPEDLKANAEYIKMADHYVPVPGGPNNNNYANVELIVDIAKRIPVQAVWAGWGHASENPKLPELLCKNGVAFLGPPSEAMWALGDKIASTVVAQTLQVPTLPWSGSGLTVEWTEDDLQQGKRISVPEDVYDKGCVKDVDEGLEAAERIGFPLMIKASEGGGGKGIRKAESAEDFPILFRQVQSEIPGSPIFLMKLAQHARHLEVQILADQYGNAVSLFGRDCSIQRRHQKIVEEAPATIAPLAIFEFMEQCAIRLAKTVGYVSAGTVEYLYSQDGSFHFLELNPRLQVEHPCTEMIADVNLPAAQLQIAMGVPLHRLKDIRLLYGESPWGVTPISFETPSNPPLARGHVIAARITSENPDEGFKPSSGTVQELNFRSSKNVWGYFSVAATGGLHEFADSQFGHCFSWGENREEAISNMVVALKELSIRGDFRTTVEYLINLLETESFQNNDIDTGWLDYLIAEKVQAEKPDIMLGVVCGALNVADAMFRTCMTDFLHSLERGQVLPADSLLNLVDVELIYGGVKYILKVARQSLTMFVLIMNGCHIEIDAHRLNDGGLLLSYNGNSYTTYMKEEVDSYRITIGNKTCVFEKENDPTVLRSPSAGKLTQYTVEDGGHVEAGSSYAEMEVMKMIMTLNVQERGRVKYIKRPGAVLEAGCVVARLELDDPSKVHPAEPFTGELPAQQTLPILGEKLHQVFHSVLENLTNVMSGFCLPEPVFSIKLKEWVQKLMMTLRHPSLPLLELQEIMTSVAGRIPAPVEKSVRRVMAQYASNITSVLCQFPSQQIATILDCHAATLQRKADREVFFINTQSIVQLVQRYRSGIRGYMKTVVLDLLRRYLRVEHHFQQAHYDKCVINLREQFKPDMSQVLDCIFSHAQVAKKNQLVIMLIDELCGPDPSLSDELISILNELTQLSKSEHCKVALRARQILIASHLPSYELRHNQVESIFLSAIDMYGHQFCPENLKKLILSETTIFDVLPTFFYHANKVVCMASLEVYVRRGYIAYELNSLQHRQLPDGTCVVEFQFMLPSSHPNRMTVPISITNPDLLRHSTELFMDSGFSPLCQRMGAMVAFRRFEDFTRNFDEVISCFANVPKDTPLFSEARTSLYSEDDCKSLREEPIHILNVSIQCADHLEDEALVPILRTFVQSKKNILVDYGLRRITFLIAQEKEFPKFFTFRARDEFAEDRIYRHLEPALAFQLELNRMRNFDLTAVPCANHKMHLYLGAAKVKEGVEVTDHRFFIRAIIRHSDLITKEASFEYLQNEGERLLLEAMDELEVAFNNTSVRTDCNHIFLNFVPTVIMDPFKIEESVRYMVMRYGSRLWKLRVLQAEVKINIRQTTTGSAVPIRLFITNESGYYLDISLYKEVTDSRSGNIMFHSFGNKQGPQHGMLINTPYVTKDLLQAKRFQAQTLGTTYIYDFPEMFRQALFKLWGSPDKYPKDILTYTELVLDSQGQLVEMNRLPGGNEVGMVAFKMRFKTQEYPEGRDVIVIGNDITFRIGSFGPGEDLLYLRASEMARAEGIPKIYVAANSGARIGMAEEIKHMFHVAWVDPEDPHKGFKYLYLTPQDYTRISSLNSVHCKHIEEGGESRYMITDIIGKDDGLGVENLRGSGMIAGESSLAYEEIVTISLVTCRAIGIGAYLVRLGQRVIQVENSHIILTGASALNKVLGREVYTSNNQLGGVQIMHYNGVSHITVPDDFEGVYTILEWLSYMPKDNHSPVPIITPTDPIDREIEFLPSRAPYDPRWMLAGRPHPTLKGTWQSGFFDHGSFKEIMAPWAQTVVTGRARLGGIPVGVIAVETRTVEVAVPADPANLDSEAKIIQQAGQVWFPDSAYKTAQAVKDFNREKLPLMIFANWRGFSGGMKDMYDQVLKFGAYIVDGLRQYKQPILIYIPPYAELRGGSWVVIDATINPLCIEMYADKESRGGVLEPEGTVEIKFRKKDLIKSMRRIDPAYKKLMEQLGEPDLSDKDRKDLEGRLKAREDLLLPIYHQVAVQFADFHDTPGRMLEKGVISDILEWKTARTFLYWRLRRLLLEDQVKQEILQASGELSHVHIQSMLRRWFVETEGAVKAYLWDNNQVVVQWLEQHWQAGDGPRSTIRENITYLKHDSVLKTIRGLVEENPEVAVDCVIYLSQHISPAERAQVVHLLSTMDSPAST
Sequence of human serum albumin (HSA) (P02768 25-609): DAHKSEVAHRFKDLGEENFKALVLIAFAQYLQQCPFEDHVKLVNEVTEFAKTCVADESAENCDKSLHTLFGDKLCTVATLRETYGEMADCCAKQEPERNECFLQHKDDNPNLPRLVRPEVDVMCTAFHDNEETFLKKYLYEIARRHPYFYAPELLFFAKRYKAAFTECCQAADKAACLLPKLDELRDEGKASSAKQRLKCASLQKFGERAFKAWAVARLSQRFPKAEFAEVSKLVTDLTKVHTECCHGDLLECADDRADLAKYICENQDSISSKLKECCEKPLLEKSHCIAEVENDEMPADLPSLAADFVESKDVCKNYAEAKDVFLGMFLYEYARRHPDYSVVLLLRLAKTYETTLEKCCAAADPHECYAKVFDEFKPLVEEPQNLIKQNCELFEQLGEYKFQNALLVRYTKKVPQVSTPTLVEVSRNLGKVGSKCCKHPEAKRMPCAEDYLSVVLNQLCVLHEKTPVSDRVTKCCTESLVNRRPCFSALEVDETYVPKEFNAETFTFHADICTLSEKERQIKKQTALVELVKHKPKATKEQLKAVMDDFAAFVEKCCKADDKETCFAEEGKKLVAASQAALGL

In data set [1], `Cc1ccc(-c2ccc(Cl)cc2)cc1C1=C(O)C2(CCC(F)(F)CC2)NC1=O` [Example 1-2, 3-(4′-Chloro-4-methylbiphenyl-3-yl)-8,8-difluoro-4-hydroxy-1-azaspiro[4.5]dec-3-en-2-one] yielded a Kd of 3860 nM. Besides, the pest or weed control at 100 g/ha with Tetranychus urticae stood at 100%. Also, in the data set on KM12, the half-maximal inhibitory concentration (IC50) came out at 58 nM. For the same compound, the IC50 against human ACC2 was 2350 nM and 2070 nM and 2450 nM and 2790 nM and 650 nM and 1280 nM and 1230 nM and 1740 nM. Further, the IC50 in the data set on H460 is 134 nM. In data set [2], this compound came in with a CLblood of 0.2 mL/min/kg and an F of 123%. For the same compound, in data set [2] (in vivo), the clearance was 0.1 mL/min/kg, the Vd was found to be 0.36 L/kg and the half-life was 52 h. In the data set on Phaedon cochleariae, the “effect (kill of beetle larvae)” value was found to be 100%. The pest or weed control at 500 g/ha in the data set on Myzus persicae is 100%. Besides, the “effect (kill of caterpillars)” value in the data set on Spodoptera frugiperda is 100%.
`Cc1ccc(-c2ccc(Cl)c(F)c2)cc1C1=C(O)C2(CCC(F)(F)CC2)NC1=O` [Example 1-1, 3-(4′-Chloro-3′-fluoro-4-methylbiphenyl-3-yl)-8,8-difluoro-4-hydroxy-1-azaspiro[4.5]dec-3-en-2-one] came in with a Kd in [1] of 3040 nM. Also, the pest or weed control at 100 g/ha with Tetranychus urticae came to 90%. Besides, the IC50 in the data set on KM12 was found to be 28 nM. In addition, the half-maximal inhibitory concentration (IC50) at human ACC2 is 3370 nM and 2110 nM and 2510 nM and 3740 nM and 957 nM and 1910 nM and 2780 nM and 3240 nM. In addition, the half-inhibitory concentration (IC50) in the data set on H460 amounted to 131 nM. Further, in [2], the CLblood was 0.367 mL/min/kg and the F turned out to be 95%. Moreover, in data set [2] (plasma), the clearance is 0.167 mL/min/kg, the Vd is 0.55 L/kg and the half-life was 40 h. Besides, in the data set on Phaedon cochleariae, the “effect (kill of beetle larvae)” value came out at 100%. Further, the pest or weed control at 500 g/ha with Myzus persicae was determined as 90%. Also, the “effect (kill of caterpillars)” value with Spodoptera frugiperda is recorded as 100%.
